Assay results as given in patent publication US10538555B2, “Macrocyclic inhibitors of the PD-1/PD-L1 and CD80(B7-1)/PD-L1 protein/protein interactions” (BRISTOL-MYERS SQUIBB COMPANY, priority 2014, dated 2020).
Where a SMILES comes first, the peptide text is derived from it. Bridges are numbered along the chain shown (N, C = ends). [ ]: non-standard residue; d: D form. ξ: configuration not given here. Trp(1-CH2COOH) = N[C@@H](Cc1cn(CC(=O)O)c2ccccc12)C(=O)O; Phe(3,4,5-F3) = N[C@@H](Cc1cc(F)c(F)c(F)c1)C(=O)O; Pro(trans-4-F) = O=C(O)[C@@H]1C[C@@H](F)CN1; NMePhe(4-F) = CN[C@@H](Cc1ccc(F)cc1)C(=O)O; Phe(4-F) = N[C@@H](Cc1ccc(F)cc1)C(=O)O; Pro(4R-Me) = C[C@H]1CN[C@H](C(=O)O)C1; Bta = N[C@@H](Cc1csc2ccccc12)C(=O)O; Hyp = O=C(O)[C@@H]1C[C@@H](O)CN1; NMeF = CN[C@@H](Cc1ccccc1)C(=O)O; NMeL = CN[C@@H](CC(C)C)C(=O)O; NMeNle = CCCC[C@H](NC)C(=O)O; NMeV = CN[C@H](C(=O)O)C(C)C; Pip = O=C(O)[C@@H]1CCCCN1; dPip = O=C(O)[C@H]1CCCCN1; NMeA = CN[C@@H](C)C(=O)O; Orn = NCCC[C@H](N)C(=O)O; Dab = NCC[C@H](N)C(=O)O; Dap = NC[C@H](N)C(=O)O; ξC = NC(CS)C(=O)O

Biological target: T1, Human PD-L1/PD-1 (Homo sapiens, UniProt Q9NZQ7)
T1 construct: TVMV protease cleavage site (C); made in house; host or cells: HEK293T cells
Test: HTRF Human PD-L1/PD-1 binding assay (PD-1-Ig/PD-L1-His)
Settings: PD-L1-His 10 nM, PD-1-Ig 20 nM; class symbol; read-out: HTRF Human PD-L1/PD-1 Binding Assay IC50 Range
In short: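 Inhibitors were preincubated 15 min with human PD-L1(18-239)-His (10 nM final), then PD-1(25-167)-Ig (20 nM final) was added for 15 min in dPBS/0.1% BSA/0.05% Tween-20. Eu-cryptate anti-Ig (1 nM) and APC anti-His (20 nM) were added; 665/620 nm ratio read after 30 min.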

T1 sequence (Q9NZQ7 with tags, fused parts or gaps): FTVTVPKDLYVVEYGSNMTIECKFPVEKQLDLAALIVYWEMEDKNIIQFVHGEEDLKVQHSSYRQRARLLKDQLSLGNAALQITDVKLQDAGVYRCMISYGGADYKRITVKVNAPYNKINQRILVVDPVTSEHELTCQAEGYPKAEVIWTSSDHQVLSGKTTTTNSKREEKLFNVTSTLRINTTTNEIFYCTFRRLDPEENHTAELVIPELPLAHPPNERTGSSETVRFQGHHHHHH

SMILES | IC50
CCCC[C@H]1C(=O)N(C)[C@@H](CCCC)C(=O)N[C@@H](CCC(=O)O)C(=O)N[C@H](C(=O)NCC(N)=O)CSCC(=O)N[C@@H](Cc2ccc(O)cc2)C(=O)N(C)[C@@H](C)C(=O)N[C@@H](CC(=O)O)C(=O)N2CCC[C@H]2C(=O)N[C@@H](CN)C(=O)N[C@@H](CC(C)C)C(=O)N2C[C@H](O)C[C@H]2C(=O)N[C@@H](Cc2c[nH]c3ccccc23)C(=O)N[C@@H](CCN)C(=O)N[C@@H](Cc2c[nH]c3ccccc23)C(=O)N1C [Example 5162] ({CH2CO}-Y[NMeA]DP[Dap]L[Hyp]W[Dab]W[NMeNle][NMeNle]ECG-NH2; thioether N-14) | 1 to 9.9 nM
CCCC[C@H]1C(=O)N(C)[C@@H](CCCC)C(=O)N[C@@H](CCC(=O)O)C(=O)N[C@H](C(=O)NCC(N)=O)CSCC(=O)N[C@@H](Cc2ccc(O)cc2)C(=O)N(C)[C@@H](C)C(=O)N[C@@H](CC(=O)O)C(=O)N2CCC[C@H]2C(=O)N[C@@H](Cc2cnc[nH]2)C(=O)N[C@@H](CCC(N)=O)C(=O)N2C[C@H](O)C[C@H]2C(=O)N[C@@H](Cc2c[nH]c3ccccc23)C(=O)N[C@@H](CO)C(=O)N[C@@H](Cc2cn(CC(=O)O)c3ccccc23)C(=O)N1C [Example 6335] ({CH2CO}-Y[NMeA]DPHQ[Hyp]WS[Trp(1-CH2COOH)][NMeNle][NMeNle]ECG-NH2; thioether N-14) | 1 to 9.9 nM
CCCC[C@H]1C(=O)N(C)[C@@H](CCCC)C(=O)N[C@@H](CCCNC(=N)N)C(=O)N[C@H](C(=O)NCC(N)=O)CSCC(=O)N[C@@H](Cc2ccc(O)cc2)C(=O)N(C)[C@@H](C)C(=O)N[C@@H](CC(=O)O)C(=O)N2CCC[C@H]2C(=O)N[C@@H](Cc2cnc[nH]2)C(=O)N[C@@H](CCCCN)C(=O)N2C[C@H](O)C[C@H]2C(=O)N[C@@H](Cc2c[nH]c3ccccc23)C(=O)N[C@@H](CCCCN)C(=O)N[C@@H](Cc2cn(CC(=O)O)c3ccccc23)C(=O)N1C [Example 6224] ({CH2CO}-Y[NMeA]DPHK[Hyp]WK[Trp(1-CH2COOH)][NMeNle][NMeNle]RCG-NH2; thioether N-14) | 10 to 99.9 nM
CCCC[C@H]1C(=O)N(C)[C@@H](CCCC)C(=O)N[C@@H](CCC(=O)O)C(=O)N[C@H](C(=O)NCC(N)=O)CSCC(=O)N[C@@H](Cc2ccc(O)cc2)C(=O)N2CCCC[C@H]2C(=O)N[C@@H](CC(=O)O)C(=O)N2CCC[C@H]2C(=O)N[C@@H](Cc2cnc[nH]2)C(=O)N[C@@H](CCC(=O)O)C(=O)N2C[C@H](O)C[C@H]2C(=O)N[C@@H](Cc2c[nH]c3ccccc23)C(=O)N[C@@H](CO)C(=O)N[C@@H](Cc2csc3ccccc23)C(=O)N1C [Example 1512] ({CH2CO}-Y[Pip]DPHE[Hyp]WS[Bta][NMeNle][NMeNle]ECG-NH2; thioether N-14) | 10 to 99.9 nM
CCCC[C@H]1C(=O)N(C)[C@@H](CCCC)C(=O)N[C@@H](CN)C(=O)N[C@H](C(=O)NCC(N)=O)CSCC(=O)N[C@@H](Cc2ccc(O)cc2)C(=O)N2CCCC[C@H]2C(=O)N[C@@H](CC(N)=O)C(=O)N2CCC[C@H]2C(=O)N[C@@H](CN)C(=O)N[C@@H](CC(C)C)C(=O)N2C[C@H](C)C[C@H]2C(=O)N[C@@H](Cc2c[nH]c3ccccc23)C(=O)N[C@@H](CCN)C(=O)N[C@@H](Cc2cn(CC(=O)O)c3ccccc23)C(=O)N1C [Example 1291] ({CH2CO}-Y[Pip]NP[Dap]L[Pro(4R-Me)]W[Dab][Trp(1-CH2COOH)][NMeNle][NMeNle][Dap]CG-NH2; thioether N-14) | 1 to 9.9 nM
CCCC[C@H]1C(=O)N(C)[C@@H](CCCC)C(=O)N[C@@H](CN)C(=O)N[C@H](C(=O)NCC(N)=O)CSCC(=O)N[C@@H](Cc2ccc(O)cc2)C(=O)N2CCCC[C@H]2C(=O)N[C@@H](CC(N)=O)C(=O)N2CCC[C@H]2C(=O)N[C@@H](Cc2cnc[nH]2)C(=O)N[C@@H](CCC(N)=O)C(=O)N2C[C@H](O)C[C@H]2C(=O)N[C@@H](Cc2c[nH]c3ccccc23)C(=O)N[C@@H](CCN)C(=O)N[C@@H](Cc2cn(CC(=O)O)c3ccccc23)C(=O)N1C [Example 1301] ({CH2CO}-Y[Pip]NPHQ[Hyp]W[Dab][Trp(1-CH2COOH)][NMeNle][NMeNle][Dap]CG-NH2; thioether N-14) | 10 to 99.9 nM

Continued, values first:

IC50 | SMILES
1 to 9.9 nM | CCCC[C@H]1C(=O)N(C)[C@@H](CCCC)C(=O)N[C@@H](CCCN)C(=O)N[C@H](C(=O)NCC(N)=O)CSCC(=O)N[C@@H](Cc2ccc(OC)cc2)C(=O)N(C)[C@@H](C)C(=O)N[C@@H](CC(N)=O)C(=O)N2CCC[C@H]2C(=O)N[C@@H](CC(N)=O)C(=O)N[C@@H](CC(C)C)C(=O)N2C[C@H](F)C[C@H]2C(=O)N[C@@H](Cc2c[nH]c3ccccc23)C(=O)N[C@@H](C)C(=O)N[C@@H](Cc2c[nH]c3ccccc23)C(=O)N1C [Example 7084] ({CH2CO}-Y(Me)[NMeA]NPNL[Pro(trans-4-F)]WAW[NMeNle][NMeNle][Orn]CG-NH2; thioether N-14)
1 to 9.9 nM | CCCC[C@H]1C(=O)N(C)[C@@H](CCCC)C(=O)N[C@@H](CO)C(=O)NC(C(=O)NCC(N)=O)CSCC(=O)N[C@@H](Cc2ccc(O)cc2)C(=O)N(C)[C@@H](C)C(=O)N[C@@H](CC(N)=O)C(=O)N2CCC[C@H]2C(=O)N[C@@H](CC(N)=O)C(=O)N[C@@H](CC(C)C)C(=O)N2C[C@H](O)C[C@H]2C(=O)N[C@@H](Cc2c[nH]c3ccccc23)C(=O)N[C@@H](CO)C(=O)N[C@@H](Cc2c[nH]c3ccccc23)C(=O)N1C (stereo partly drawn) [Example 9142] ({CH2CO}-Y[NMeA]NPNL[Hyp]WSW[NMeNle][NMeNle]S[ξC]G-NH2; thioether N-14)
100 to 990 nM | CCCC[C@H]1C(=O)N2CCC[C@@H]2C(=O)N[C@@H](CC(=O)O)C(=O)N[C@@H](C(C)C)C(=O)N(C)[C@@H](CC(C)C)C(=O)N[C@@H](Cc2ccc(O)cc2)C(=O)N2CCC[C@@H]2C(=O)N[C@@H](Cc2c[nH]c3ccccc23)C(=O)N[C@@H](Cc2ccc(O)cc2)C(=O)N[C@@H](CC(C)C)C(=O)N[C@H](C(=O)NCC(N)=O)CSCC(=O)N[C@@H](Cc2ccc(F)cc2)C(=O)N(C)[C@@H](Cc2ccccc2)C(=O)N1C [Example 9249] ({CH2CO}-[Phe(4-F)][NMeF][NMeNle][dP]DV[NMeL]Y[dP]WYLCG-NH2; thioether N-13)
1 to 9.9 nM | CCCC[C@H]1C(=O)N(C)[C@@H](CCCC)C(=O)N[C@@H](CCC(=O)O)C(=O)N[C@H](C(=O)NCC(N)=O)CSCC(=O)N[C@@H](Cc2ccc(OC)cc2)C(=O)N(C)[C@@H](C)C(=O)N[C@@H](CC(=O)O)C(=O)N2CCC[C@H]2C(=O)N[C@@H](Cc2cnc[nH]2)C(=O)N[C@@H](CCCCN)C(=O)N2C[C@H](O)C[C@H]2C(=O)N[C@@H](Cc2c[nH]c3ccccc23)C(=O)N[C@@H](CC(=O)O)C(=O)N[C@@H](Cc2c[nH]c3ccccc23)C(=O)N1C [Example 7131] ({CH2CO}-Y(Me)[NMeA]DPHK[Hyp]WDW[NMeNle][NMeNle]ECG-NH2; thioether N-14)
10 to 99.9 nM | CCCC[C@H]1C(=O)N(C)[C@@H](C)C(=O)N[C@@H](CCCNC(=N)N)C(=O)NC(C(=O)NCC(N)=O)CSCC(=O)N[C@@H](Cc2ccc(O)cc2)C(=O)N(C)[C@@H](C)C(=O)N[C@@H](CC(N)=O)C(=O)N2CCC[C@H]2C(=O)N[C@@H](CC(N)=O)C(=O)N[C@@H](CC(C)C)C(=O)N2CCC[C@H]2C(=O)N[C@@H](Cc2c[nH]c3ccccc23)C(=O)N[C@@H](CO)C(=O)N[C@@H](Cc2c[nH]c3ccccc23)C(=O)N1C (stereo partly drawn) [Example 9136] ({CH2CO}-Y[NMeA]NPNLPWSW[NMeNle][NMeA]R[ξC]G-NH2; thioether N-14)
1 to 9.9 nM | CCCC[C@H]1C(=O)N2CCC[C@@H]2C(=O)N[C@@H](CC(=O)O)C(=O)N[C@@H](C(C)C)C(=O)N(C)[C@@H](Cc2ccccc2)C(=O)N[C@@H](CCCN)C(=O)N2CCC[C@@H]2C(=O)N[C@@H](Cc2c[nH]c3ccccc23)C(=O)N[C@@H](Cc2ccc(O)cc2)C(=O)N[C@@H](CC(C)C)C(=O)N[C@H](C(=O)NCC(N)=O)CSCC(=O)N[C@@H](Cc2cc(F)c(F)c(F)c2)C(=O)N(C)[C@@H](Cc2ccccc2)C(=O)N1C [Example 10104] ({CH2CO}-[Phe(3,4,5-F3)][NMeF][NMeNle][dP]DV[NMeF][Orn][dP]WYLCG-NH2; thioether N-13)
1 to 9.9 nM | CCCC[C@H]1C(=O)N2CCC[C@@H]2C(=O)N[C@@H](CC(=O)O)C(=O)N[C@@H](C(C)C)C(=O)N(C)[C@@H](Cc2ccccc2)C(=O)N[C@@H](Cc2ccc(O)cc2)C(=O)N2CCC[C@@H]2C(=O)N[C@@H](Cc2c[nH]c3ccccc23)C(=O)N[C@@H](Cc2ccc(O)cc2)C(=O)N[C@@H](CCC(=O)O)C(=O)N[C@H](C(=O)NCC(N)=O)CSCC(=O)N[C@@H](Cc2cc(F)c(F)c(F)c2)C(=O)N(C)[C@@H](Cc2ccccc2)C(=O)N1C [Example 10097] ({CH2CO}-[Phe(3,4,5-F3)][NMeF][NMeNle][dP]DV[NMeF]Y[dP]WYECG-NH2; thioether N-13)
1000 to 10000 nM | CCCC[C@H]1C(=O)N2CCC[C@@H]2C(=O)N[C@@H](CC(=O)O)C(=O)N[C@@H](C(C)C)C(=O)N(C)[C@@H](C(C)C)C(=O)N[C@@H](CCC(N)=O)C(=O)N2CCCC[C@@H]2C(=O)N[C@@H](Cc2c[nH]c3ccccc23)C(=O)N[C@@H](Cc2ccc(O)cc2)C(=O)N[C@@H](CCCN)C(=O)N[C@H](C(=O)NCC(N)=O)CSCC(=O)N[C@@H](Cc2ccc(F)cc2)C(=O)N(C)[C@@H](Cc2ccccc2)C(=O)N1C [Example 9248] ({CH2CO}-[Phe(4-F)][NMeF][NMeNle][dP]DV[NMeV]Q[dPip]WY[Orn]CG-NH2; thioether N-13)
1 to 9.9 nM | CCCC[C@H]1C(=O)N2CCC[C@@H]2C(=O)N[C@@H](CC(=O)O)C(=O)N[C@@H](C(C)C)C(=O)N(C)[C@@H](Cc2ccc(F)cc2)C(=O)N[C@@H](CCCN)C(=O)N2CCC[C@@H]2C(=O)N[C@@H](Cc2c[nH]c3ccccc23)C(=O)N[C@@H](Cc2ccc(O)cc2)C(=O)N[C@@H](CC(C)C)C(=O)N[C@H](C(=O)NCC(N)=O)CSCC(=O)N[C@@H](Cc2ccc(F)cc2)C(=O)N(C)[C@@H](Cc2ccccc2)C(=O)N1C [Example 10108] ({CH2CO}-[Phe(4-F)][NMeF][NMeNle][dP]DV[NMePhe(4-F)][Orn][dP]WYLCG-NH2; thioether N-13)
